Data on 1 compound can be found in patent US20180256538A1, “METHOD FOR IMPROVING MITOPHAGY IN SUBJECTS” (Amazentis SA, priority 2017, published 2018).

SMILES strings stand for the structures. “Also recorded” adds a separate entry of the source.

Data set [1] in a line: clinical. To be noted: human, in vivo, po; for AUC(0-t) / Cmax: both sexes. The method, then:
Part A: The study was a double-blind, randomized, single ascending doses, study in 24 healthy elderly male and female volunteers. Each subject was randomized for two subsequent doses in three cohorts.
Part A: Single oral dose administration on D1 of each period according to the randomisation. The administration took place around 8:00 am with around 200 mL tap water, in sitting position, and under fasting conditions.
After single dosing: Cmax, tmax, AUC0-t, AUC0-∞, t1/2
(§1) Blood sampling was performed for urolithin A concentration measurements at the exact timepoints with an authorised time window described in the table below:
(§2) At each time point indicated in the table, a 6 mL blood sample was drawn into K2-EDTA coated tube. The blood samples were gently inverted a few times for complete mixing with the anticoagulant. The exact time of sample collection was recorded on the eCRF. Within 30 minutes following blood collection, each blood sample was centrifuged at 1500 g for 10 minutes at 4° C.
(§3) From the plasma concentration-time data, the following pharmacokinetic parameters were determined, as data permit using non-compartmental methods: maximum observed plasma concentration (Cmax), time at which maximum observed plasma concentration (tmax), area under the plasma concentration-time curve AUC(0-24 h) and AUC(0-∞), and apparent terminal phase half-life (t1/2).
FIG. 1 summarises certain plasma pharmacokinetic parameters of urolithin A following single dose oral administration at 250 mg, 500 mg, and 2000 mg urolithin A dosages.

Data set [2] is described as follows: clinical. To be noted: human, in vivo, po. The method, then:
Part B: The study was a double-blinded, randomized, multiple ascending dose study in 36 healthy elderly male and female volunteers. Each subject was randomised to receive study product or placebo for 28 days.
Part B: Repeated oral dose administration from day 1 to day 28 according to the randomization. The administration took place around 8:00 am with around 200 mL tap water, in a sitting position, and under fasting conditions.
After multiple dosing: Cmax, tmax, AUC0-24 h, t1/2 From the plasma concentration-time data, the following pharmacokinetic parameters will be determined, as data permit using non-compartmental methods: maximum observed plasma concentration (Cmax(ng/mL), time at which maximum observed plasma concentration (tmax) (h), area under the plasma concentration-time curve AUC(0-24 h) (ng/mL*h) and AUC0-∞) (ng/mL*h), and apparent terminal phase half-life (t1/2) (h).
as §1, §2, §3

In data set [3] the test system is mitochondrial gene sets in vastus lateralis muscle. Description: Microarray / Gene Set Enrichment Analysis of gene expression in skeletal muscle biopsies after 28 days dosing. Type of data set: in vivo, human. To be noted: 500 mg/day for 28 days vs placebo group. The protocol: Muscle biopsies were collected before the meal from the vastus lateralis muscle of the right leg in order to perform ex vivo measurements.
Muscle biopsies were collected on Day −1 and Day 28 at pre-dose under fasted state using the Bergstrom biopsy needle technique. The minimal amount of each muscle tissue sample was approximately […]. One third of the tissue was used for gene expression (≈50 mg), and was further divided into two equal portions: one portion for RNA analysis (≈25 mg) and one portion for DNA analysis (≈25 mg), both in a Safe-lock Tubes 2.0 ml, Eppendorf (part no. 0030.120.094). Muscle tissue was snap frozen using liquid nitrogen immediately after collection and further, long term storage will be in a −80° C. freezer. The mRNA was analysed by qPCR. Quantification of mtDNA over nuclear DNA provided another measure of mitochondrial abundance. The shipment was done in dry ice by specialized carrier. Temperatures were monitored using data logger during all transport.
Gene expression on available remaining muscle tissues samples was performed by microarrays.
Microarray analysis was carried out on skeletal muscle biopsies of human subjects administered urolithin A or placebo daily for 28 days. Approximately 30,000 gene transcripts were quantified by microarray in muscle biopsies and compared (day 28 vs. day −1). Gene Set Enrichment Analysis was conducted on 6166 gene sets. […]

For data set [4], the system named is plasma acylcarnitines and other metabolites. Description: Plasma metabolomics (LC/MS/MS), day 28 vs day -1. To be noted: 500 mg/day for 28 days. It is filed as in vivo, human. The method, then:
Blood handling procedures: at each time point indicated in the table, a 6 mL blood sample was drawn into K2-EDTA coated tube. The blood samples were gently inverted a few times for complete mixing with the anticoagulant. The exact time of sample collection was recorded on the eCRF. Within 30 minutes following blood collection, each blood sample was centrifuged at 1500 g for 10 minutes at 4° C. 30 minutes after the centrifugation, the top layer of human plasma was transferred into 2 pre-labelled polypropylene tubes, containing approximately 1500 μL of plasma. Blood cells were not transferred. All sample tubes were clearly and appropriately labelled. Tubes were capped immediately from each time point and the plasma was be frozen in an upright position at approximately −80° C. for storage. Measurement of metabolites: Samples were extracted and split into equal parts for analysis on the LC/MS/MS and Polar LC platforms. Proprietary software was used to match ions to an in-house library of standards for metabolite identification and for metabolite quantitation by peak area integration. A total of 781 metabolites were quantified. Metabolomics is the study of known measurable metabolites in a sample. […] The technique made use of HPLC-MS-MS analysis of plasma samples of subjects administered either placebo or urolithin A to characterise metabolites. 781 plasma metabolites which cover all of the biochemical processes of the body were investigated. […] The grey line in FIG. 8 corresponds to a fold change of 1, i.e. absence of effect. *P<0.05 correspond to a significant effect from D-1 (pre-dose) to D28, calculated after a repeated measures ANOVA. N=9 per group. Values represent the arithmetic mean of the fold changes.

For data set [5], the system named is myostatin/follistatin ratio. Description: ELISA of plasma muscle function markers, day 28 vs day -1. It is filed as in vivo, human. To be noted: 500 mg/day for 28 days, day 28 vs day -1, compared with placebo. The protocol: Blood handling procedures: at each time point indicated in the table, a 6 mL blood sample was drawn into K2-EDTA coated tube. The blood samples were gently inverted a few times for complete mixing with the anticoagulant. The exact time of sample collection was recorded on the eCRF. Within 30 minutes following blood collection, each blood sample was centrifuged at 1500 g for 10 minutes at 4° C. 30 minutes after the centrifugation, the top layer of human plasma was transferred into 2 pre-labelled polypropylene tubes, containing approximately 1500 μL of plasma. Blood cells were not transferred. All sample tubes were clearly and appropriately labelled. Tubes were capped immediately from each time point and the plasma was be frozen in an upright position at approximately −80° C. for storage. Measurement of markers of muscle function: Markers of muscle function, including myostatin and follistatin, were measured using an ELISA based method. Every sample was analysed in technical duplicates together with a standard curve made with each isolated analyte. The amount of each marker was expressed as an absolute concentration in plasma (pg to μg/ml of plasma, depending on the analyte). Analysis of the levels of muscle biomarkers myostatin and follistatin, which are found in plasma of human subjects, was carried out using ELISA.

The nature of data set [6]: Steady state plasma levels of total Urolithin A (parent + glucuronide and sulfate) over 28 days of dosing. Type of data set: in vivo, human. To be noted: 500 mg/day oral for 28 days, total Urolithin A in plasma. The protocol:
A double-blind, randomized, placebo controlled clinical trial was conducted in healthy elderly to establish the steady state levels of Urolithin A in plasma. Elderly subjects (61-82 years) (n=9), participated in each group of dosing. The subjects met all the inclusion and exclusion criteria of the study and signed informed consent. The subjects were overnight fasted and the plasma was collected in the morning before breakfast to assess steady state levels. Subjects were given a dose of Urolithin or placebo each morning for the 28 day trial, The urolithin A was given as softgel capsules containing 250 mg of Urolithin A in each capsule. Plasma samples were collected for assessment of Urolithin A steady state concentrations in the 4-week Urolithin A study at the following time points (Day 0, Day 7, Day 14, Day 28, Day 29, Day 31, and Day 32) were measured On day 28 the subjects were admitted to a Phase I clinical trial unit and the kinetics of Urolithin A absorption, and elimination following multiple 4-week dosing were followed until 96 hours following the last dosing on Day 28. Plasma was collected at the following time-points post last dosing with Urolithin A on Day 28: pre-dose, 1 hr, 2 hr, 4 hr, 6 hr, 8 hr, 12 hr, 24 hr, 72 hr and 96 hr. […] The exact time of sample collection was recorded on the eCRF (electronic case report from). […]

For the compound `O=c1oc2cc(O)ccc2c2ccc(O)cc12` [Urolithin A], in the data set “clinical [1]” (500 mg), the AUC(0-t) (usually the area under the concentration-time curve up to a stated or last time point) amounted to 13.3 ng·h/mL and the concentration peaked (Cmax) at 1.24 ng/mL. Also, in “clinical [1]” (2000 mg), the AUC(0-t) was determined as 12.4 ng·h/mL and the Cmax (commonly the highest concentration seen after dosing) came out at 1.04 ng/mL. The “dose-normalised plasma Cmax and AUC0-36 h (plasma levels per mg dosed)” value in the data set “clinical [1]” is “higher plasma levels of urolithin A were observed per mg dosed”. Further, in “clinical [2]” (both sexes, 500 mg), the AUC (commonly concentration integrated over time) is 10.7 ng·h/mL and the Cmax amounted to 1.25 ng/mL. Further, in “clinical [2]”, the “pharmacokinetic profile over the 28 day period (plasma concentrations 24 h after previous dose, days 7, 14, 28, 29)” value is given as “stable”. The “enrichment in GO_MITOCHONDRION genes expression” value in data set [3] is on record as “significant”. For the same compound, in data set [4], the plasma carnitine levels entry is “did not change”. For the same compound, in data set [4] (day -1 to day 28, N=9), the “change in plasma acylcarnitines, short chain up to long chain (fold change)” value is listed as “overall decrease; also recorded: significant impact”; the “change in plasma pyruvate, lactate, acetoacetate, 3-hydroxyoctanoate and glucose (fold change)” value is “no significant change”. Moreover, the “change in plasma myostatin/follistatin ratio” value in data set [5] was “significantly lower; also recorded: significant decrease”. Further, the “steady state levels after end of the 4-week administration (Day 31 and Day 32)” value in data set [6] is given as “gradually declined”.
